Results published in US5159077A, “Penam antibacterial compounds” (Hoffmann-La Roche Inc., priority 1989, dated 1992).
Converted amounts (≈) assume the structure as drawn. Where a name gives a salt, the structure may show the parent alone. Read-outs that look alike come from different tables or passages of the source.

What was measured:
[1] = stability of the product (remark in the preparation); assay type: physicochemical; conditions: remark on the isolated product
Streptococcus 82 = experiment: In vitro MIC, Agar Well Diffusion Method; assay type: cell-based, Streptococcus aureus
Method: (§1) In vitro antimicrobial activity was determined in BBL seed agar. Serial dilutions of the test compound were pipetted into agar wells (80 μL per well). […] For reference, see A. H. Litton, Antibiotics: Assessment of Antimicrobial Activity and Resistance, Academic Press, New York, pages 19-30 (1983).

Pseudomonas aeruginosa B = experiment: In vitro MIC, Agar Well Diffusion Method; assay type: cell-based; conditions: read-out: In Vitro MIC
Method: as §1

[2] = tested on: Klebsiella pneumoniae 369; experiment: In vitro MIC, Agar Well Diffusion Method; assay type: cell-based
Method: as §1

Escherichia coli 1269B = experiment: In vitro MIC, Agar Well Diffusion Method; assay type: cell-based; conditions: read-out: In Vitro MIC
Method: as §1

Proteus vulgaris 101N = experiment: In vitro MIC, Agar Well Diffusion Method; assay type: cell-based; conditions: read-out: In Vitro MIC
Method: as §1

[3] = tested on: Pseudomonas aeruginosa 56; experiment: In vitro MIC, Agar Well Diffusion Method; assay type: cell-based
Method: as §1

[4] = tested on: Enterobacter cloacae 2952B; experiment: In vitro MIC, Agar Well Diffusion Method; assay type: cell-based; conditions: read-out: In Vitro MIC
Method: as §1

[5] = tested on: Streptococcus faecium ATCC 8043; experiment: In vitro MIC, Agar Well Diffusion Method; assay type: cell-based; conditions: Enterococcus faecium
Method: as §1

Serratia marcescens SM [6] = experiment: In vitro MIC, Agar Well Diffusion Method; assay type: cell-based; conditions: read-out: In Vitro MIC
Method: as §1

Micrococcus luteus PCl = experiment: In vitro MIC, Agar Well Diffusion Method; assay type: cell-based; conditions: read-out: In Vitro MIC
Method: as §1

[7] = tested on: Staphylococcus aureus ATCC 29213; experiment: In vitro MIC, Broth Dilution Method; assay type: cell-based
Method: (§2) The diluted agents prepared in Mueller-Hinton broth were dispensed from a Dynatech MIC 2000 machine, in 100 microliter (μL) volumes into 96 well trays and used immediately or frozen at -10° to -70° C. until needed. Using a Dynatech inoculator and inoculum trays, 1.5 μL of a 10^-2 dilution of an overnight culture was added to each well of the tray. The tops of the trays were then sealed with tape, and the trays were incubated overnight at 37° C. and then examined with a viewer. The lowest concentration at which no growth was observed was considered to be the minimum inhibitory concentration (MIC).

[8] = tested on: Streptococcus faecalis ATCC 29212; experiment: In vitro MIC, Broth Dilution Method; assay type: cell-based; conditions: Enterococcus faecalis, ATCC29212; Broth Dilution Method; Streptococcus faecalis ATCC 29212; read-out: In Vitro MIC
Method: as §2

Klebsiella pneumoniae A = experiment: In vitro MIC, Broth Dilution Method; assay type: cell-based; conditions: read-out: In Vitro MIC
Method: as §2

Serratia marcescens SM [9] = experiment: In vitro MIC, Broth Dilution Method; assay type: cell-based; conditions: read-out: In Vitro MIC
Method: as §2

[10] = tested on: Citrobacter freundii BS-16; experiment: In vitro MIC, Broth Dilution Method; assay type: cell-based; conditions: BS16; Broth Dilution Method; Citrobacter freundii BS-16; read-out: In Vitro MIC
Method: as §2

Escherichia coli TEM-1 = experiment: In vitro MIC, Broth Dilution Method; assay type: cell-based; conditions: TEM1, read-out: In Vitro MIC
Method: as §2

Proteus mirabilis 2 = experiment: In vitro MIC, Broth Dilution Method; assay type: cell-based
Method: as §2

[11] = tested on: Proteus vulgaris ATCC 6380; experiment: In vitro MIC, Broth Dilution Method; assay type: cell-based; conditions: Proteus vulgaris, ATCC6380, read-out: In Vitro MIC
Method: as §2

[12] = tested on: Enterobacter cloacae 5699; experiment: In vitro MIC, Broth Dilution Method; assay type: cell-based
Method: as §2

[13] = tested on: Pseudomonas aeruginosa Stone 130; experiment: In vitro MIC, Broth Dilution Method; assay type: cell-based
Method: as §2

[14] = tested on: Streptococcus pneumoniae 6301; experiment: In vitro MIC, Broth Dilution Method; assay type: cell-based
Method: as §2

Proteus mirabilis 90 = experiment: In vitro MIC, Broth Dilution Method; assay type: cell-based
Method: as §2

Enterobacter cloacae P99 = experiment: In vitro MIC, Broth Dilution Method; assay type: cell-based; conditions: P99, read-out: In Vitro MIC
Method: as §2

[15] = tested on: Staphylococcus aureus Smith; experiment: In vitro MIC, Broth Dilution Method; assay type: cell-based; conditions: read-out: In Vitro MIC
Method: as §2

Escherichia coli 4 = experiment: In vitro MIC, Broth Dilution Method; assay type: cell-based
Method: as §2

[16] = tested on: Pseudomonas aeruginosa ATCC 27853; experiment: In vitro MIC, Broth Dilution Method; assay type: cell-based; conditions: ATCC27853; Broth Dilution Method; Pseudomonas aeruginosa ATCC 27853; read-out: In Vitro MIC
Method: as §2

[17] = Agar Well Diffusion Method, Streptococcus aureus 82, read-out: In Vitro MIC
[18] = Agar Well Diffusion Method, Pseudomonas aeruginosa B
[19] = Agar Well Diffusion Method, Klebsiella pneumoniae 369, read-out: In Vitro MIC
[20] = Agar Well Diffusion Method, Escherichia coli 1269B
[21] = Agar Well Diffusion Method, Proteus vulgaris 101N
[22] = Agar Well Diffusion Method, Pseudomonas aeruginosa 56, read-out: In Vitro MIC
[23] = Agar Well Diffusion Method, Enterobacter cloacae 2952B
[24] = ATCC8043, Agar Well Diffusion Method, Streptococcus faecium ATCC 8043, read-out: In Vitro MIC
[25] = Agar Well Diffusion Method, Serratia marcescens SM
[26] = Agar Well Diffusion Method, Micrococcus luteus PCl
[27] = ATCC29213, Broth Dilution Method, Staphylococcus aureus ATCC 29213, read-out: In Vitro MIC
[28] = Broth Dilution Method, Klebsiella pneumoniae A
[29] = Broth Dilution Method, Serratia marcescens SM
[30] = Broth Dilution Method, Proteus mirabilis 2, read-out: In Vitro MIC
[31] = Enterobacter cloacae, 5699, read-out: In Vitro MIC
[32] = Pseudomonas aeruginosa, STONE130, read-out: In Vitro MIC
[33] = Broth Dilution Method, Streptococcus pneumoniae 6301, read-out: In Vitro MIC
[34] = Proteus mirabilis, 90, read-out: In Vitro MIC
[35] = Broth Dilution Method, Staphylococcus aureus Smith
[36] = Escherichia coli, 4, read-out: In Vitro MIC
[37] = Broth Dilution Method, Enterobacter cloacae 5699, read-out: In Vitro MIC
[38] = STONE130, Broth Dilution Method, Pseudomonas aeruginosa Stone 130, read-out: In Vitro MIC
[39] = Broth Dilution Method, Proteus mirabilis 90, read-out: In Vitro MIC
[40] = Broth Dilution Method, Escherichia coli 4, read-out: In Vitro MIC
[41] = Proteus mirabilis, 2, read-out: In Vitro MIC

Compound | MIC (Streptococcus 82; [17]) [µg/mL] | MIC (Pseudomonas aeruginosa B; [18]) [µg/mL] | MIC [2, 19] [µg/mL] | MIC (Escherichia coli 1269B; [20]) [µg/mL] | MIC (Proteus vulgaris 101N; [21]) [µg/mL] | MIC [3, 22] [µg/mL] | MIC [4, 23] [µg/mL] | MIC [5, 24] [µg/mL] | MIC (Serratia marcescens SM [6]; [25]) [µg/mL] | MIC (Micrococcus luteus PCl; [26]) [µg/mL] | MIC [7, 27] [µg/mL] | MIC [8] [µg/mL] | MIC (Klebsiella pneumoniae A; [28]) [µg/mL] | MIC (Serratia marcescens SM [9]; [29]) [µg/mL] | MIC [10] [µg/mL] | MIC (Escherichia coli TEM-1) [µg/mL] | MIC [11] [µg/mL] | MIC [14, 33] [µg/mL] | MIC (Enterobacter cloacae P99) [µg/mL] | MIC [16] [µg/mL] | other results
CCn1cc(C(=O)O)c(=O)c2cc(F)c(N3CCN(C=N[C@@H]4C(=O)N5[C@@H]4SC(C)(C)[C@@H]5C(=O)O)CC3)nc21 [Compound H, disodium salt] | 7.8 | 15.6 | 7.8 | 7.8 | 7.8 | 15.6 | 31.3 | 125 | 31.3 | 31.3 | 0.5 | 8 | 0.25 | 0.5 | 0.5 | 0.125 | 0.125 | 2 | 0.125 | 8 | stability [1]: very unstable; MIC (Proteus mirabilis 2; [30]): 0.5 µg/mL; MIC [12, 31]: 0.125 µg/mL; MIC [13, 32]: 1 µg/mL; MIC (Proteus mirabilis 90; [34]): 1 µg/mL; MIC [15, 35]: 0.5 µg/mL; MIC (Escherichia coli 4; [36]): 0.125 µg/mL
CCn1cc(C(=O)OC)c(=O)c2cc(F)c(N3CCN(C=N[C@@H]4C(=O)N5[C@@H]4SC(C)(C)[C@@H]5C(=O)O)CC3)cc21 [Compound A] | 7.8 (≈ 13.9 µM) | 250 (≈ 447 µM) | 125 (≈ 223 µM) | 62.5 (≈ 112 µM) | 62.5 (≈ 112 µM) | 500 (≈ 893 µM) | 62.5 (≈ 112 µM) | 250 (≈ 447 µM) | 250 (≈ 447 µM) | 31.3 (≈ 55.9 µM) | 16 (≈ 28.6 µM) | 32 (≈ 57.2 µM) | 16 (≈ 28.6 µM) | 16 (≈ 28.6 µM) | 32 (≈ 57.2 µM) | 4 (≈ 7.15 µM) | 4 (≈ 7.15 µM) | – | 8 (≈ 14.3 µM) | > 128 | MIC (Proteus mirabilis 2; [30]): 8 µg/mL (≈ 14.3 µM); MIC [12, 37]: 8 µg/mL (≈ 14.3 µM); MIC [13, 38]: 64 µg/mL (≈ 114 µM); MIC ([14]; Streptococcus pneumoniae, 6301, read-out: In Vitro MIC): 1 µg/mL (≈ 1.79 µM); MIC (Proteus mirabilis 90; [39]): 32 µg/mL (≈ 57.2 µM); MIC [15, 35]: 2 µg/mL (≈ 3.57 µM); MIC (Escherichia coli 4; [40]): 8 µg/mL (≈ 14.3 µM)
CCn1cc(C(=O)[O-])c(=O)c2cc(F)c(N3CCN(C=N[C@H]4CN(S(=O)(=O)[O-])C4=O)CC3)cc21.[Na+].[Na+] [Compound E, (S)-1-Ethyl-6-fluoro-1,4-dihydro-4-oxo-7-[4-[[(1-sulfo-2-oxo-3-azetidinyl)imino]methyl]-1-piperazinyl]-3-quinolinecarboxylic acid disodium salt] | – | – | – | – | – | – | – | – | – | – | – | – | – | – | – | 0.063 | 0.031 | – | 0.063 | – | MIC (Streptococcus 82; Streptococcus, 82, read-out: In Vitro MIC): 15.6 µg/mL; MIC (Pseudomonas aeruginosa B; Pseudomonas aeruginosa): 3.9 µg/mL; MIC ([2]; Klebsiella pneumoniae, 369, read-out: In Vitro MIC): 3.9 µg/mL; MIC (Escherichia coli 1269B; Escherichia coli, 1269B): 7.8 µg/mL; MIC (Proteus vulgaris 101N; Proteus vulgaris, 101N): 1.95 µg/mL; MIC ([3]; Pseudomonas aeruginosa, 56, read-out: In Vitro MIC): 7.8 µg/mL; MIC ([4]; Enterobacter cloacae, 2952B): 31.3 µg/mL; MIC ([5]; ATCC8043, read-out: In Vitro MIC): > 125 µg/mL; MIC (Serratia marcescens SM [6]; Serratia marcescens): 3.9 µg/mL; MIC (Micrococcus luteus PCl; Micrococcus luteus): > 125 µg/mL; MIC ([7]; Staphylococcus aureus, ATCC29213, read-out: In Vitro MIC): 2 µg/mL; MIC (Klebsiella pneumoniae A; Klebsiella pneumoniae): 0.125 µg/mL; MIC (Serratia marcescens SM [9]; Serratia marcescens): 0.063 µg/mL; MIC (Proteus mirabilis 2; [41]): 0.063 µg/mL; MIC [12, 31]: 0.125 µg/mL; MIC [13, 32]: 1 µg/mL; MIC (Proteus mirabilis 90; [34]): 0.063 µg/mL; MIC ([15]; Staphylococcus aureus): 0.5 µg/mL; MIC (Escherichia coli 4; [36]): 0.125 µg/mL
CCn1cc(C(=O)O)c(=O)c2cc(F)c(N3CCCN(C=N[C@@H]4C(=O)N5[C@@H]4SC(C)(C)[C@@H]5C(=O)O)CC3)cc21 [Compound G, [2S-(2α,5α,6β)]-7-[4-[[)2-Carboxy-3,3-dimethyl-7-oxo-4-thia-1-azabicyclo[3.2.0]hept-6-yl)-imino]methyl]hexahydro-1H-1,4-diazepin-1-yl]-1-ethyl-6-fluoro-1,4-dihydro-4-oxo-3-quinolinecarboxylic acid disodium salt] | 50 | 50 | 100 | 50 | 50 | 100 | 100 | > 400 | 50 | 25 | 16 | 64 | 2 | 2 | 8 | 1 | 1 | 2 | 2 | 16 | MIC (Proteus mirabilis 2; [41]): 4 µg/mL; MIC [12, 37]: 2 µg/mL; MIC [13, 38]: 8 µg/mL; MIC (Proteus mirabilis 90; [39]): 8 µg/mL; MIC [15, 35]: 2 µg/mL; MIC (Escherichia coli 4; [40]): 2 µg/mL
CC1(C)S[C@@H]2[C@H](N=CN3CCN(c4c(F)cc5c(=O)c(C(=O)O)cn(CCF)c5c4F)CC3)C(=O)N2[C@H]1C(=O)O [Compound D, 2R-(2α,5α,6β)]-7-[4-[[(2-Carboxy-3,3-dimethyl-7-oxo-4-thia-1-azabicyclo[3.2.0]hept-6-yl)amino]-methylene]-1-piperazinyl]-6,8-difluoro-1-(2-fluoroethyl)-1,4-dihydro-4-dihydro-4-oxo-3-quinoline-carboxylic acid monosodium salt] | 3.9 | 15.6 | 7.8 | 1.95 | 1.95 | 7.8 | 7.8 | 15.6 | 31.3 | 15.6 | 4 | 32 | – | 0.25 | 1 | 0.125 | 0.063 | 2 | 0.125 | 2 | MIC (Klebsiella pneumoniae A; Klebsiella pneumoniae): 0.125 µg/mL; MIC (Proteus mirabilis 2; [41]): 0.125 µg/mL; MIC [12, 37]: 0.25 µg/mL; MIC [13, 38]: 4 µg/mL; MIC (Proteus mirabilis 90; [39]): 1 µg/mL; MIC ([15]; Staphylococcus aureus): 0.5 µg/mL; MIC (Escherichia coli 4; [36]): 0.125 µg/mL
